Experimental data reported in patent US20150258106A1, “METHODS FOR ACUTE AND LONG-TERM TREATMENT OF SUBSTANCE ABUSE” (DEMERX, INC., priority 2014, published 2015).

What was measured:
Type in all cases: in vivo, human
[1] = test system: opioid-dependent participants; test: Treatment emergent adverse events in opioid-dependent participants (randomized, placebo-controlled, double-blind trial)
Method: The efficacy of noribogaine in humans was evaluated in opioid-dependent participants in a randomized, placebo-controlled, double-blind trial. […] See U.S. application Ser. No. 14/214,157, filed Mar. 14, 2014 and Ser. No. 14/346,655, filed Mar. 21, 2014, which are incorporated herein by reference in their entireties.
Three cohorts of nine (9) subjects (6 administered noribogaine and 3 administered placebo in each cohort) were evaluated for tolerability, pharmacokinetics, and efficacy. Cohort 1 received a single dose of 60 mg noribogaine or placebo. Cohort 2 received a single dose of 120 mg noribogaine or placebo. Cohort 3 received a single dose of 180 mg noribogaine or placebo. […] Headaches were frequent in the placebo and 60 mg noribogaine treatment groups, but were attenuated in the 120 mg and 180 mg dose groups.

[2] = test system: opioid-dependent participants; test: QT interval evaluation in opioid-dependent participants; conditions: opioid-dependent patients, first 24 hours post administration, 60-180 mg
Method: Patients' QT intervals were evaluated at regular time points throughout the study.

[3] = test system: opioid-dependent participants; test: Opiate withdrawal scales (COWS, SOWS, OOWS) in opioid-dependent participants
Method: Patients were evaluated based on the Clinical Opiate Withdrawal Scale (COWS), Subjective Opiate Withdrawal Scale (SOWS), and Objective Opiate Withdrawal Scale (OOWS) scoring systems over the period of time between administration of noribogaine (or placebo) until resumption of OST. These scales are outlined in Guidelines for the Psychosocially Assisted Pharmacological Treatment of Opioid Dependence, World Health Organization, Geneva (2009), Annex 10, which is incorporated herein by reference in its entirety. The scales measure the intensity of withdrawal symptoms, based on clinical, subjective, and objective indicia.

[4] = opioid-dependent patients, 60, 120 or 180 mg single dose
[5] = opioid-dependent patients, single 60 mg dose, N = 6
[6] = opioid-dependent patients, single 120 mg dose, N = 6
[7] = opioid-dependent patients, single 180 mg dose, N = 6

What does the source list for CCC1CC2CC3c4[nH]c5ccc(O)cc5c4CCN(C2)C13 (stereo not shown) [Noribogaine]?
Headaches ([1]; opioid-dependent patients, 60 mg treatment group): frequent; Headaches ([1]; opioid-dependent patients, 120 mg dose group): attenuated; Headaches ([1]; opioid-dependent patients, 180 mg dose group): attenuated; adverse effects of noribogaine observed [1, 4]: Few adverse effects; hallucinatory effects [1, 4]: no hallucinatory effects; Treatment Emergent Adverse Events: Catheter Site Infection [1, 5]: 0; Treatment Emergent Adverse Events: Catheter Site Pain [1, 5]: 0; Treatment Emergent Adverse Events: Catheter Site Related Reaction [1, 5]: 0; Treatment Emergent Adverse Events: Cellulitis [1, 5]: 0; Treatment Emergent Adverse Events: Diarrhoea [1, 5]: 0; Treatment Emergent Adverse Events: Dry Mouth [1, 5]: 0; Treatment Emergent Adverse Events: Ear and Labyrinth Disorders [1, 5]: 0; Treatment Emergent Adverse Events: Epistaxis [1, 5]: 0; Treatment Emergent Adverse Events: Euphoric Mood [1, 5]: 0; Treatment Emergent Adverse Events: General Disorders and Administration Site Conditions [1, 5]: 0; Treatment Emergent Adverse Events: Hyperaesthesia [1, 5]: 0; Treatment Emergent Adverse Events: Infections and Infestations [1, 5]: 0; Treatment Emergent Adverse Events: Limb Discomfort [1, 5]: 0; Treatment Emergent Adverse Events: Malaise [1, 5]: 0; Treatment Emergent Adverse Events: Nausea [1, 5]: 0; Treatment Emergent Adverse Events: Oropharyngeal Pain [1, 5]: 0; Treatment Emergent Adverse Events: Pseudoparalysis [1, 5]: 0; Treatment Emergent Adverse Events: Respiratory, Thoracic and Mediastinal Disorders [1, 5]: 0; Treatment Emergent Adverse Events: Rhinorrhoea [1, 5]: 0; Treatment Emergent Adverse Events: Skin Discomfort [1, 5]: 0; Treatment Emergent Adverse Events: Skin Irritation [1, 5]: 0; Treatment Emergent Adverse Events: Skin and Subcutaneous Tissue Disorders [1, 5]: 0; Treatment Emergent Adverse Events: Somnoience [1, 5]: 0; Treatment Emergent Adverse Events: Tinnitus [1, 5]: 0; Treatment Emergent Adverse Events: Tremor [1, 5]: 0; Treatment Emergent Adverse Events: Urinary Tract Infection [1, 5]: 0; Treatment Emergent Adverse Events: Vomiting [1, 5]: 0; Treatment Emergent Adverse Events: Back Pain [1, 6]: 0; Treatment Emergent Adverse Events: Catheter Site Infection [1, 6]: 0; Treatment Emergent Adverse Events: Catheter Site Related Reaction [1, 6]: 0; Treatment Emergent Adverse Events: Depressed Mood [1, 6]: 0; Treatment Emergent Adverse Events: Dry Eye [1, 6]: 0; Treatment Emergent Adverse Events: Dyspepsia [1, 6]: 0; Treatment Emergent Adverse Events: Euphoric Mood [1, 6]: 0; Treatment Emergent Adverse Events: Limb Discomfort [1, 6]: 0; Treatment Emergent Adverse Events: Malaise [1, 6]: 0; Treatment Emergent Adverse Events: Musculoskeletal and Connective Tissue Disorders [1, 6]: 0; Treatment Emergent Adverse Events: Psychiatric Disorders [1, 6]: 0; Treatment Emergent Adverse Events: Somnoience [1, 6]: 0; Treatment Emergent Adverse Events: Urinary Tract Infection [1, 6]: 0; Treatment Emergent Adverse Events: Catheter Site Infection [1, 7]: 0; Treatment Emergent Adverse Events: Catheter Site Pain [1, 7]: 0; Treatment Emergent Adverse Events: Depressed Mood [1, 7]: 0; Treatment Emergent Adverse Events: Diarrhoea [1, 7]: 0; Treatment Emergent Adverse Events: Dry Eye [1, 7]: 0; Treatment Emergent Adverse Events: Dyspepsia [1, 7]: 0; Treatment Emergent Adverse Events: Ear and Labyrinth Disorders [1, 7]: 0; Treatment Emergent Adverse Events: Epistaxis [1, 7]: 0; Treatment Emergent Adverse Events: Euphoric Mood [1, 7]: 0; Treatment Emergent Adverse Events: Hyperaesthesia [1, 7]: 0; Treatment Emergent Adverse Events: Malaise [1, 7]: 0; Treatment Emergent Adverse Events: Oropharyngeal Pain [1, 7]: 0; Treatment Emergent Adverse Events: Pseudoparalysis [1, 7]: 0; Treatment Emergent Adverse Events: Psychiatric Disorders [1, 7]: 0; Treatment Emergent Adverse Events: Respiratory, Thoracic and Mediastinal Disorders [1, 7]: 0; Treatment Emergent Adverse Events: Rhinorrhoea [1, 7]: 0; Treatment Emergent Adverse Events: Skin Discomfort [1, 7]: 0; Treatment Emergent Adverse Events: Skin Irritation [1, 7]: 0; Treatment Emergent Adverse Events: Skin and Subcutaneous Tissue Disorders [1, 7]: 0; Treatment Emergent Adverse Events: Somnoience [1, 7]: 0; Treatment Emergent Adverse Events: Tinnitus [1, 7]: 0; Treatment Emergent Adverse Events: Tremor [1, 7]: 0; QT interval prolongation (ΔQTc1) [2]: dose-dependent increase in QT interval prolongation; withdrawal symptoms (COWS, OOWS, SOWS), first six hours following dosing ([3]; opioid-dependent patients, 120 mg): fewer withdrawal symptoms than the other patients; withdrawal symptoms (COWS, OOWS, SOWS), noribogaine compared with placebo ([3]; opioid-dependent patients, 60, 120 or 180 mg): Patients administered placebo generally experienced more withdrawal symptoms than patients who were administered noribogaine
